Literature values, collected in patent US6891077B2, “Fibrinogen bandages and arterial bleeding models and methods of making and using thereof” (priority 2001, dated 2005).

Test system: coagulation and clot formation
Settings: incorporated in or on fibrinogen dressings or bandages

NCCCCCC(=O)O [ε-amino caproic acid]
Effect on coagulation and clot formation as compared to fibrinogen bandages alone: decreased coagulation and clot formation
